How the values were obtained:
BI-D1870 + AZD7762 = compound: CC(C)CCN1c2nc(Nc3cc(F)c(O)c(F)c3)ncc2N(C)C(=O)C1C [BI-D1870] + NC(=O)Nc1cc(-c2cccc(F)c2)sc1C(=O)N[C@H]1CCCNC1 [AZD7762] (partner 0.2 µM); test: relative viability (nuclei count vs DMSO), 5 days (fraction); higher = more cells survive
Outline: (§1)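 One day after seeding in 1536-well plates, lung cancer cell lines were dosed by pin tool. Dosing was either single-drug or a fixed anchor-drug dose plus five library-drug doses (not always all listed) in √10 steps. After 5 days, nuclei were stained in one fix-and-stain step and counted on 4× images, and relative viability is the nuclei count of treated wells over that of vehicle wells, given as the median of duplicate plates.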

BI-D1870 + Trametinib = compound: CC(C)CCN1c2nc(Nc3cc(F)c(O)c(F)c3)ncc2N(C)C(=O)C1C [BI-D1870] + CC(=O)Nc1cccc(-n2c(=O)n(C3CC3)c(=O)c3c(Nc4ccc(I)cc4F)n(C)c(=O)c(C)c32)c1 [Trametinib] (partner 0.02 µM); test: as above
Outline: as §1

In the case of SW 900, the relative viability (BI-D1870 + AZD7762; first compound 0.04 µM) is reported as 0.81, the relative viability (BI-D1870 + AZD7762; first compound 0.1265 µM) is reported as 0.589 and the relative viability (BI-D1870 + AZD7762; first compound 0.4 µM) is reported as 0.526. The relative viability (BI-D1870 + AZD7762; first compound 1.265 µM) was 0.661, the relative viability (BI-D1870 + AZD7762; first compound 4 µM) was 0.594 and the relative viability (BI-D1870 + Trametinib; first compound 0.04 µM) was 0.883. The relative viability (BI-D1870 + Trametinib; first compound 0.1265 µM) was 0.83, the relative viability (BI-D1870 + Trametinib; first compound 0.4 µM) was 0.858 and the relative viability (BI-D1870 + Trametinib; first compound 1.265 µM) was 0.762. For the same cell line, the relative viability (BI-D1870 + Trametinib; first compound 4 µM) was 0.984.
